In US20180243260A1, “METHODS OF TREATING COGNITIVE AND BEHAVIORAL IMPAIRMENT IN DOWN SYNDROME AND ALZHEIMERS DISEASE PATIENTS” (AVANTI BIOSCIENCES INC., priority 2016, published 2018):

Legend:
DYRK1A [1] = biological target: T1, DYRK1A (Rattus norvegicus, UniProt Q63470); assay: DYRK1A ELISA non-radioactive kinase assay; type: biochemical; conditions: HT-PRD substrate, 100 μM ATP, 30 min at 30° C.
T1 construct: 6x histidine tag (HT)
Method: Decant HT-PRD solution, wash the wells twice with Tris dilution buffer. Block each well with 150 μl BSA/PBST blocking buffer PBST (2% BSA in PBS with 0.25% Tween 20) for at least 1 hr at room temperature.
Decant the blocking solution and wash the wells 3-4 times with Tris dilution buffer. Perform DYRK1A phosphorylation in the well with 100 μl reaction buffer (25 mM HEPES, pH 7.4, 100 mM NaCl, 5 mM MgCl2, and 100 μM ATP) containing DYRK1A (eg. 5-10 ng purified HT-DYRK1A) and inhibitor, if necessary, for 30 min at 30° C. […] Use 80 μl of this mixture in the reaction will give final ATP concentration of 100 μM. ATP concentrations may be adjusted if necessary. • 2. Add 10 μl inhibitor. If the inhibitor is dissolved in DMSO, shake the plate gently for 1 min before adding kinase. • 3. Dilute DYRK1A in Tris dilution buffer to a concentration of 0.5 ng/l (prepare fresh every time). • 4. Initiate phosphorylation by adding 10 l DYRK1A to each well.
Decant the phosphorylation solution and wash the wells three times with PBST. Add 100 μl diluted antibody 3D3 (eg. 2˜3K dilution of 1.5 mg/ml stock in BSA blocking buffer) and incubate for 1 hr at room temperature.
Decant the primary antibody solution and wash the wells three times with PBST. Add 100 μl diluted AP-conjugated anti-mouse IgG (5K dilution of anti-mouse IgG-AP in BSA blocking buffer) and incubate for 1 hr at room temperature.
Color Development and Detection.
Decant the secondary antibody and wash the wells extensively (3-4 times) with AP buffer (10 mM Tris-HCl, pH 9.5, 10 mM NaCl, and 5 mM MgCl2). Add 100 μl p-nitrophenyl phosphate solution (1 mg/ml in AP buffer or 1 PNPP tablet per 5 ml 1× diethanolamine substrate buffer) and incubate the plate at 30° C. Yellow color should start appearing in a few minutes. OD at 405 nm usually can be read between 10-30 min.

DYRK1A [2] = biological target: DYRK1A (Homo sapiens, UniProt Q13627); conditions: non-ATP competitive DYRK1A inhibitor; Bain, J., et al., Biochem J 408 (2007); cited from earlier work
DS patients = conditions: randomized, double-blinded placebo-controlled study, De la Torre et al. 2014; cited from earlier work

Compound	IC50 (DYRK1A [1]) [µM]	IC50 (DYRK1A [2]) [µM]	memory recognition, working memory and quality of life (DS patients)
Oc1cc(O)c2c(c1)O[C@H](c1cc(O)c(O)c(O)c1)[C@H](O)C2 [(2R,3R)-2-(3,4,5-trihydroxyphenyl)chroman-3,5,7-triol]	> 100	–	–
O=C(O[C@@H]1Cc2c(O)cc(O)cc2O[C@@H]1c1ccc(O)c(O)c1)c1cc(O)c(O)c(O)c1 [(2R,3R)-2-(3,4-dihydroxyphenyl)-5,7-dihydroxychroman-3-yl 3,4,5-trihydroxybenzoate]	0.52	–	–
Oc1cc(O)c2c(c1)O[C@H](c1ccc(O)c(O)c1)[C@H](O)C2 [(2R,3R)-2-(3,4-dihydroxyphenyl)chroman-3,5,7-triol]	> 100	–	–
COc1c(O)cc([C@H]2Oc3cc(O)cc(O)c3C[C@H]2OC(=O)c2cc(O)c(O)c(O)c2)cc1O [(2R,3R)-2-(3,5-dihydroxy-4-methoxyphenyl)-5,7-dihydroxychroman-3-yl 3,4,5-trihydroxybenzoate]	5.8	–	–
COc1c(O)cc(C(=O)O[C@@H]2Cc3c(O)cc(O)cc3O[C@@H]2c2cc(O)c(O)c(O)c2)cc1O [(2R,3R)-5,7-dihydroxy-2-(3,4,5-trihydroxyphenyl)chroman-3-yl 3,5-dihydroxy-4-methoxybenzoate]	25.1	–	–
Oc1cc(O)c2c(c1)O[C@@H](c1cc(O)c(O)c(O)c1)[C@H](O)C2 [(2S,3R)-2-(3,4,5-trihydroxyphenyl)chroman-3,5,7-triol]	> 100	–	–
O=C(O[C@@H]1Cc2c(O)cc(O)cc2O[C@H]1c1ccc(O)c(O)c1)c1cc(O)c(O)c(O)c1 [(2S,3R)-2-(3,4-dihydroxyphenyl)-5,7-dihydroxychroman-3-yl 3,4,5-trihydroxybenzoate]	0.18	–	–
Oc1cc(O)c2c(c1)O[C@@H](c1ccc(O)c(O)c1)[C@H](O)C2 [(2S,3R)-2-(3,4-dihydroxyphenyl)chroman-3,5,7-triol]	> 100	–	–
O=C(O[C@@H]1Cc2c(O)cc(O)cc2O[C@@H]1c1cc(O)c(O)c(O)c1)c1cc(O)c(O)c(O)c1 [EGCG, Epigallocatechin gallate]	–	0.33	improved memory recognition, working memory and quality of life
